Results reported in PubChem BioAssay AID2305 (GlaxoSmithKline (GSK), 2010).
pIC50: −log10 of the molar value.

Each compound was assayed on P. falciparum 3D7 growth, pLDH absorbance (assay: blood-stage malaria parasite growth potency – strain 3D7, dose response (AID 2305)).

Structure (SMILES) | pIC50
COc1ccc2c(NN=Cc3ccccc3)ccnc2c1 | 6.89
Clc1ccc(Sc2cncnc2N2CCOCC2)cc1 | 7.40
Fc1cc(Cl)ccc1Nc1ccnc2cc(-c3ccc(CN4CCNCC4)o3)ccc12 | 6.55
COc1ccccc1-c1cccc(Nc2c(Nc3ccc(Cl)cc3)c(=O)c2=O)c1 | 6.06
COc1cccc(C(=O)C2CC2CN2CC=C(c3c(C)[nH]c4ccccc34)CC2)c1 (configuration not stated) | 6.15
CCc1ccc(O)c(-c2cc(C(=O)Nc3cccnc3)[nH]n2)c1 | 6.16
Cc1cc(Nc2ccc(Cl)c(Cl)c2)n2nc(C)nc2n1 | 6.59
COc1ccc2nccc([C@@H](O)CN3CCC(NCc4cc5cccc(OC)c5o4)CC3)c2c1 | 6.10
CCc1cc(=O)[nH]c(-n2nc(C)cc2NC(=O)CC(c2ccccc2)c2ccccc2)n1 | 6.02
Fc1cc(Cl)ccc1Nc1ccnc2cc(-c3ccc(CN4CCCCC4)o3)ccc12 | 6.47
COc1cc(NC(=O)N2CCc3cc(OC)c(OCCN4CCCCC4)cc32)cc(C(F)(F)F)c1 | 5.94
c1cc(CNCc2ccc3c(c2)OCO3)cc(-c2cccc(CNc3ccc4ncccc4c3)c2)c1 | 6.12
COc1ccc2nccc([C@@H](O)CN3CCC(NCc4cc5cc(C)ccc5s4)CC3)c2c1 | 6.19
Cc1cccc2[nH]c(-c3cccc(-c4ccc(NC(=O)CS(C)(=O)=O)cc4)c3)nc12 | 6.00
O=[N+]([O-])c1ccc(CNCCCCCCNCc2ccc([N+](=O)[O-])c3ccccc23)c2ccccc12 | 6.10
COc1cc2nc(N3CCC(CNC(=O)c4ccc(OC(F)(F)F)cc4)CC3)nc(N)c2cc1OC | 6.66
Cn1cncc1C(=O)Nc1cccc(-c2ccc(-c3nc4ccc(F)cc4[nH]3)s2)c1 | 6.06
COc1ccc(CN2CCC(N3CC(c4ccccc4)(c4ccccc4)OCC3=O)C2)c(O)c1 (configuration not stated) | 6.03
CN(C)Cc1cccc(-c2ccc(NC(=O)c3ccc4c(=O)n(Cc5ccoc5)cnc4c3)cc2)c1 | 6.11
COc1ccc(C2SCC(=O)N2CCc2ccc(OC)c(OC)c2)cc1 (configuration not stated) | 6.51
N#Cc1ccc(N2CCN(Cc3cccc(-c4cccc(-c5nc6ccc(C(F)(F)F)cc6[nH]5)c4)c3)CC2)nc1 | 6.02
NCCCN(Cc1ccc(Cl)c(Cl)c1)C(=O)Nc1ccc(Cl)c(Cl)c1 | 6.05
COc1ccc(C)c(Nc2ccnc(Nc3ccc(-c4cnc[nH]4)cc3)n2)c1 | 5.86
O=C(NC(=Cc1cccc([N+](=O)[O-])c1)c1nc2ccccc2[nH]1)c1cccc(Br)c1 | 6.21
COc1cc(NC(=O)Nc2ccc([N+](=O)[O-])cc2OC)c(OC)cc1Cl | 5.83
CC1CCN(C(=O)CSc2nc(-c3ccc(C(C)C)cc3)no2)CC1 | 5.87

Structure (SMILES) | pIC50
O=C(Nc1ccc(-c2ccccc2)s1)N[C@H]1CCN(Cc2ccc(OCCCN3CCCCC3)cc2)C1 | 6.13
Fc1ccc2nc(-c3ccc(-c4ccc(CNCCc5cccnc5)cc4)s3)[nH]c2c1 | 6.62
CCN(CCCN1CCCCC1)c1nccc(Nc2ccc(Cl)cc2)n1 | 5.92
O=C(/C=C/c1ccc(Cl)c(Cl)c1)NCCCCCN1CCC(NC(=O)Nc2ccc(F)cc2F)CC1 | 6.13
C=Cc1cc(OC)c2c(c1)c(=O)oc1c2cc(OC)c2c(O)ccc([C@H]3O[C@H]([C@@H](C)O)[C@H](O)[C@H]3O)c21 | 6.10
COc1cccc(NC(=O)[C@H](C)n2c(=O)[nH]c3ccccc3c2=O)c1 | 6.12
CC(=O)Nc1ccc(-c2nc3ccc(-c4nc5ccc(NC(C)=O)cc5[nH]4)cc3[nH]2)cc1 | 6.62
COc1cc([N+](=O)[O-])ccc1NC(=O)Nc1ccc(OC(F)(F)F)cc1 | 5.99
C#CCNC(=O)c1ccc(-c2ccnc(Nc3cccc(CCCN4CCOCC4)c3)n2)s1 | 6.00
CC(C)(C)c1ccc(NC(=O)c2ccc(CN3CCCN(Cc4cccc(C#N)c4)CC3)cc2)cc1 | 6.19
COc1ccc2[nH]cc(C3CCN(CCC4CCN(C(=O)/C=C/c5ccc(Cl)c(Cl)c5)CC4)CC3)c2c1 | 6.07
CCCCn1c(SC(C)C)nc2c(c1=O)C1(CCCCC1)Cc1ccccc1-2 | 6.17
CS(=O)(=O)c1cccc(-c2cnc3[nH]cc(-c4cccc(CCN)c4)c3c2)c1 | 5.81
OCCN1CCN(Cc2ccc(-c3cccc(-c4nc5ccc(C(F)(F)F)cc5[nH]4)c3)cc2)CC1 | 6.19
COc1ccc(N2CCN(CCCCNC(=O)c3ccc(/C=C/c4ccc(Cl)c(Cl)c4)cc3)CC2)c(OC)c1 | 6.15
NCc1ccc(-c2cccc(CNC3CCN(Cc4ccccc4)CC3)c2)cc1 | 6.17
COc1cc2nccc(Nc3ccc4c(cnn4Cc4cccc(F)c4)c3)c2cc1OC | 6.62
COc1ccc(NC(=O)CSc2nc(-c3ccccc3Cl)ns2)cc1OC | 6.12
O=C(CCc1cnc[nH]1)Nc1ccc(-c2ccc(-c3nc4ccccc4[nH]3)cc2)cc1 | 6.15
CN(C)C(=S)N=Nc1c(O)[nH]c2ccccc12 | 5.98
CN(CCCN(C)c1cc(NC(=O)c2cccc(F)c2)ccn1)Cc1cccc(O)c1 | 5.72
CCC(C)(CC)C(=O)n1ncc2c3c(N)nc(N)nc3ccc21 | 8.00
CC[C@H]1CN2CCc3cc(OC)c(OC)cc3[C@@H]2C[C@@H]1C[C@H]1NCCc2c1cc(OC)c(O)c2I | 6.66
Cc1c(C)c2c(c(C)c1O)CC[C@@](C)(C(=O)NC1CCC(CN3CCC(c4c[nH]c5ccccc45)CC3)CC1)O2 (some centres not stated) | 6.02
CNC(=O)c1cncc(/C=C/c2ccccc2S(N)(=O)=O)c1 | 6.16
Cc1cccn2c(=O)c3cc(C(=O)NC(C)c4ccccc4)c(=N)n(CCc4ccccc4)c3nc12 (configuration not stated) | 6.26

Structure (SMILES) | pIC50
CCCCCCCc1c(C)[nH]c2ccccc2c1=O | 6.68
Cc1sc(CNCCCNc2cc(=O)c3ccccc3[nH]2)c(I)c1C | 6.07
O=C(NCCc1ccccc1F)c1ccc(N2CCN(c3ccncc3)CC2)cn1 | 5.97
CN1CCN(CCCN(Cc2csc(-c3ccc(CNCc4ccccc4)cc3)n2)C(=O)Nc2ccc3ccccc3c2)CC1 | 5.96
Cc1ccc(Cc2c(C)nc3nc(N)nc(N)c3c2C)cc1 | 6.62
O=S(=O)(NCCN1CCCC1)c1cccc(-c2ccc(CNCc3ccsc3)cc2)c1 | 6.10
COc1ccc2nccc([C@@H](O)CN3CCC(NC(=O)c4ccc5cc[nH]c5c4)CC3)c2c1 | 6.01
CN(C)c1ccc(NC2=NC(C)(C)N=C(N)N2)cc1 | 6.66
CN1CCN(c2ccc(-c3cccc(NC(=O)c4cccc(Cl)c4)c3)nn2)CC1 | 6.24
CN(C)Cc1ccc(-c2ccc3c(Nc4ccc(Oc5ccccn5)cc4)ccnc3c2)o1 | 6.80
COc1cccc(OC)c1C(=O)Nc1cccc(-c2nn3ccccc3c2-c2ccnc(Nc3cccc(F)c3)n2)c1 | 6.12
C=CCc1ccccc1OCC(O)CN(C1CCCCC1)C1CCCCC1 (configuration not stated) | 6.09
CCOC(=O)c1ccc(NC(=O)N[C@H]2CCN(CCCCCNC(=O)/C=C/c3ccc(Cl)c(Cl)c3)C2)cc1 | 6.13
CN(CC(=O)Nc1cc(C(F)(F)F)ccc1-n1cncn1)Cc1nc2ccccc2s1 | 5.85
C=CCOc1cccc2c1CCN(CCN1CCC(NC(=O)c3ccc(-c4ccc(Cl)cc4)cc3)CC1)C2 | 6.17
Cc1ccc(CCNCC(O)c2cccc(C(F)(F)F)c2)cc1 (configuration not stated) | 6.06
Cc1cc(N(C)C2CCN(CC3CCCCC3)C2)nc(Nc2ccc(Cl)cc2)n1 (configuration not stated) | 6.17
Nc1nc2cccc3ccc4cccc1c4c32 | 6.04
CC(C)Cc1c(O)nc(SCCN2CCOCC2)[nH]c1=O | 5.90
O=C(N[C@@H](CC1CCCCC1)C(=O)NCCc1ccc(Cl)c(Cl)c1)c1ccc(O)c(-c2ccc(Cl)c(Cl)c2)c1 | 6.80
Cc1nc(-c2nc(NCc3ccc4c(c3)OCO4)ncc2-c2ccsc2)sc1C | 7.00
CCN(CCCN1CCCCC1)c1cc(C)nc(Nc2cc(F)cc(F)c2)n1 | 6.24
COc1cc(CNC(=S)NN=C(C)c2ccccn2)cc(OC)c1OC | 6.40
COc1ccccc1CNc1ncc(-c2ccsc2)c(-c2nccs2)n1 | 6.48
Cc1cc(F)ccc1-c1nc(NCC(O)CNCCc2ccccc2)nc2c1ccc(=O)n2-c1c(F)cccc1F (configuration not stated) | 6.27
COc1cc(Cc2cnc(N)nc2N)cc(OCCCCCC(N)=O)c1OC | 5.92

Structure (SMILES) | pIC50
CCC(CC)n1c(COC)cc2c3c(N)nc(N)nc3ccc21 | 8.00
COc1ccc(-c2cncc3ccc(C(=O)NCCCn4ccnc4)nc23)cc1 | 6.12
CCOc1ccc(C(C)NC(=O)Cc2ccccc2F)cc1OCC (configuration not stated) | 6.08
CCCCN(Cc1cccc(C(F)(F)F)c1Cl)c1ccc(C(O)(C(F)(F)F)C(F)(F)F)cc1 | 6.02
COc1ccc(NC(=O)N2CCc3ccc(OCCN(C(C)C)C(C)C)cc32)cc1C(F)(F)F | 6.01
Clc1ccc(-c2cc(-c3csc(NCCN4CCCCC4)n3)on2)cc1 | 6.00
CCc1nc(N)nc(N)c1-c1ccccc1 | 5.93
c1cc(CN2CCCCC2)cc(OCCCNc2ccnc3ccccc23)c1 | 6.37
N#Cc1ccc(-c2cnc3ccc(NCCc4cccnc4)nn23)cc1 | 6.59
O=C(CCCCCc1ccccc1)NC1CCC(CN2CCC(c3c[nH]c4ccccc34)CC2)CC1 (configuration not stated) | 5.94
Oc1cccc(Nc2nc(NCc3ccccc3)c3ccccc3n2)c1 | 7.40
O=[N+]([O-])c1cccc(C=NNc2ccnc3cc(F)ccc23)c1 | 6.04
O=C(Nc1ccc(F)c(Cl)c1)c1cc([N+](=O)[O-])cc2cn[nH]c12 | 6.49
NC(=O)Nc1ccc2c(Nc3ccc(OCc4ccccc4)cc3)ncnc2c1 | 5.90
CCCc1cc(C(=O)N[C@@H](Cc2ccccc2)[C@H](O)CNC2CCOCC2)c(F)c(N2CCCCS2(=O)=O)c1 | 6.77
CN(C)Cc1ccc2cc(NC(=O)c3ccc(-c4ccc(Cl)cc4)cc3)ccc2c1 | 5.87
CCCCCc1cc(O)c2c3c(c(=O)oc2c1)CN(C)CC3 | 6.92
CCCN(c1ccc(C(F)(F)F)cc1[N+](=O)[O-])S(=O)(=O)C(c1ccccc1)c1ccc(C(F)(F)F)cc1[N+](=O)[O-] (configuration not stated) | 5.91
CCOC(=O)NC1=NC(C)(C)N(OCc2cccc3c2ccc2ccccc23)C(NC(=O)OCC)=N1 | 6.77
CCc1nc2c(cnn2CC)c(NC2CCOCC2)c1CNC(=O)c1ccoc1C | 6.05
CC(CN1CCN(C)CC1)C(=O)Nc1cccc(-c2cccc(-c3nc4ccc(F)cc4[nH]3)c2)c1 (configuration not stated) | 6.57
C=CCC(CC=C)N1C(=O)C(c2ccccc2)(c2ccccc2)N=C1N | 6.18
COc1c(F)ccc2ncc(Cl)c(CCN3CCC(NCc4ccc5c(n4)NC(=O)CS5)CC3)c12 | 6.27
Cc1ccc2nc(-c3ccccc3Nc3ccnc4cc(-c5nccs5)ccc34)[nH]c2c1 | 6.72
